According to patent US9206198B2, “Inhibitors of the renal outer medullary potassium channel” (Merck Sharp & Dohme Corp., priority 2012, dated 2015):

molecular target: hROMK (hKir1.1) (Homo sapiens (Human), UniProt P48048); experiment: Thallium Flux Assay (ROMK channel functional thallium flux assay, FLIPR-Tetra); format: cell-based; conditions: HEK293 cells stably expressing hROMK
Description: Cell Culture Conditions— HEK293 cells stably expressing hROMK (hKir1.1) were grown at 37° C. in a 10% CO2 humidified incubator in complete growth media: Dulbecco's Modified Eagle Medium supplemented with non-essential amino acids, Penicillin/Streptomycin/Glutamine, G418 and FBS. At >80% confluency, aspirate the media from the flask and rinse with 10 mL Calcium/Magnesium-free PBS. Add 5 mL of 1× trypsin (prepared in Ca/Mg Free PBS) to T-225 flask and return flask to 37° C./CO2 incubator for 2-3 minutes. To dislodge the cell, gently bang the side of the flask with your hand. Triturate the cells completely and then transfer the cells to 25 mL complete media. Centrifuge at 1,500 rpm for 6 min followed by resuspension in complete growth media and determine cell concentration. For typical re-seeding, 4E6 cells/T-225 flask will attain >80% confluency in 4 days. Under ideal growth conditions and appropriate tissue culture practices, this cell line is stable for 40-45 passages.
FluxOR Kit Components (Invitrogen F10017)
• FluxOR™ Reagent (Component A) • FluxOR™ Assay Buffer (Component B)—10× Concentrate • PowerLoad™ Concentrate (Component C)—100× Concentrate • Probenecid (Component D)—Lyophilized sample is kept at −20° C. Water soluble, 100×after solubilization in 1 mL water. Store at 4° C. • FluxOR™ Chloride-free Buffer (Component E)—5× Concentrate • Potassium sulfate (K2SO4) Concentrate (Component F)—125 mM in water. Store at 4° C. • Thallium sulfate (Tl2SO4) Concentrate (Component G)—50 mM in water. Store at 4° C. • DMSO (dimethyl sulfoxide, Component H)—1 mL (100%) Reagent Preparation: FluxOR Working Solutions • 1000× FluxOR™ Reagent: Reconstitute a vial of component A in 100 μl DMSO; Mix well; Store 10 μl aliquots at −20° C. • 1× FluxOR™ Assay Buffer: Dilute Component B 10-fold with water; Adjust pH to 7.4 with Hepes/NaOH; Filter and store at 4° C. • Probenecid/Assay Buffer: 100 mL of 1× FluxOR™ Assay Buffer; 1 mL of reconstituted component D; Store at 4° C. • Loading Buffer (per microplate): 10 μl 1000× FluxOR™ Reagent; 100 μl component C; 10 mL Probenecid/Assay Buffer • Compound Buffer (per microplate): 20 mL Probenecid/Assay Buffer; 0.3 mM ouabain (10 mM ouabain in water can be stored in amber bottle/aluminum foil at room temperature); Test compound • 1× FluxOR™ Chloride-Free Buffer: Prepare 1× working solution in water. Can be stored at room temperature • Stimulant Buffer (prepared at 5× final concentration in 1× FluxOR™ Chloride-Free Buffer): 7.5 mM Thallium sulfate and 0.75 mM Potassium sulfate (to give a final assay concentration of 3 mM Thallium 0.3 mM Potassium). Store at 4° C. when not in use. If kept sterile, this solution is good for months.
Assay Protocol—The ROMK channel functional thallium flux assay is performed in 384 wells, using the FLIPR-Tetra instrument. HEK-hKir1.1 cells are seeded in Poly-D-Lysine microplates and kept in a 37° C.-10% CO2 incubator overnight. On the day of the experiment, the growth media is replaced with the FluxOR™ reagent loading buffer and incubated, protected from light, at ambient temperature (23-25° C.) for 90 min. The loading buffer is replaced with assay buffer±test compound followed by 30 min incubation at ambient temperature, where the Thallium/Potassium stimulant is added to the microplate.
• 1. Seed HEK-hKir1.1 cells ([…] at 20,000 cells/well) in 384-well PDL coated Microplates • 2. Allow cells to adhere overnight in humidified 37° C./10% CO2 incubator • 3. Completely remove cell growth media from microplate and replace with 25 μl loading buffer • 4. Incubate Microplate at room temperature, protected form light, for 90 min • 5. Remove loading buffer and replace with 25 μl 1× Assay Buffer±test compound. • 6. Incubate microplate at room temperature, protected from light, for 30 min • 7. At FLIPR-Tetra 384: Add stimulant (Thallium/Potassium) solution to microplate and monitor fluorescence. Excitation=400 nm, Emission=460 & 580 nm. Collect data for 10 min.

Sequence of hROMK (hKir1.1) (P48048 whole entry): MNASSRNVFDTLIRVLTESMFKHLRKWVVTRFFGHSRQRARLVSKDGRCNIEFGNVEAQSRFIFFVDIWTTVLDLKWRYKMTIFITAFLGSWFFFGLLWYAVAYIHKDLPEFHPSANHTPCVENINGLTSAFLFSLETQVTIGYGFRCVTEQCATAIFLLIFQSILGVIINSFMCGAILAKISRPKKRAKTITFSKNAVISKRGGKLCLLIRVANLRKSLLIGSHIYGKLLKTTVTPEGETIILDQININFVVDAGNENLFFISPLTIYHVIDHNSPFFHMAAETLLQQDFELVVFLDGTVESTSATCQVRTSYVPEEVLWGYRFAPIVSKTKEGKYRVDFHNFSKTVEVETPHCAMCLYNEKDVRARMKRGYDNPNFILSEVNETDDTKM

SMILES | IC50 [µM]
CC1=C(N2CCC3(CCN(C[C@H](O)c4ccc5c(c4C)COC5=O)CC3F)C2=O)COC1=O (single isomer, unassigned) [Example 27] | 0.21
CC1=C(N2CCC3(CCN(C[C@H](O)c4ccc5c(c4C)COC5=O)CC3F)C2=O)COC1=O (single isomer, unassigned) [Example 28] | 0.19
Cc1c([C@@H](O)CN2C3CCC2CC2(CC(C)N(C4=CC(=O)OC4)C2=O)C3)ccc2c1COC2=O (single isomer, unassigned) [Example 40] | 0.02
Cc1c([C@H](O)CN2C3CCC2CC2(CC(C)N(C4=CC(=O)OC4)C2=O)C3)ccc2c1COC2=O (single isomer, unassigned) [Example 42] | 0.1
CCc1c(C(O)CN2CCC3(CC2)CCN(C2=C(C)C(=O)OC2)C3=O)ccc2c1COC2=O (single isomer, unassigned) [Example 74] | 0.2
CC1=C(N2CCC3(CCN(CC(O)c4ccc5c(c4C4CC4)COC5=O)CC3)C2=O)COC1=O (single isomer, unassigned) [Example 77] | 0.24
CC1=C(N2CCC3(CCN(CC(O)c4ccc5c(c4Cl)COC5=O)CC3)C2=O)COC1=O (single isomer, unassigned) [Example 78] | 0.27
CC1=C(N2CCC3(CCN(CC(O)c4ccc5c(c4F)COC5=O)CC3)C2=O)COC1=O (single isomer, unassigned) [Example 81] | 0.19
Cc1c([C@@H](O)CN2CCC3(CC2)C[C@@H](C)N(C2=CC(=O)OC2)C3=O)ccc2c1COC2=O [Example 6A] | 0.02
CC1=C(N2CCC3(CCN(C[C@H](O)c4ccc5c(c4C)COC5=O)CC3O)C2=O)COC1=O (stereo partly drawn) [Example 26] | 0.23
Cc1c([C@@H](O)CN2C3CCC2CC2(CC(C)N(C4=CC(=O)OC4)C2=O)C3)ccc2c1COC2=O (stereo partly drawn) [Example 39] | 0.02
Cc1c([C@H](O)CN2C3CCC2CC2(CC(C)N(C4=CC(=O)OC4)C2=O)C3)ccc2c1COC2=O (stereo partly drawn) [Example 41] | 0.24
CC1=C(N2CCC3(CC4CN(C)CC(C3)N4C[C@H](O)c3ccc4c(c3C)COC4=O)C2=O)COC1=O (stereo partly drawn) [Example 45] | 0.16
CC1=C(N2CCC3(CC4CN(C)CC(C3)N4C[C@@H](O)c3ccc4c(c3C)COC4=O)C2=O)COC1=O (stereo partly drawn) [Example 46] | 0.14
CC1=C(N2CCC3(CCN([C@@H](C)[C@H](O)c4ccc5c(c4C)COC5=O)CC3)C2=O)COC1=O [Example 53A] | 0.01
CC1=C(N2CCC3(CCN(CC(NC4CC4)c4ccc5c(c4C)COC5=O)CC3)C2=O)COC1=O (stereo not drawn) [Example 54, 8-(2-(cyclopropylamino)-2-(4-methyl-1-oxo-1,3-dihydroisobenzofuran-5-yl)ethyl)-2-(4-methyl-5-oxo-2,5-dihydrofuran-3-yl)-2,8-diazaspiro[4.5]decan-1-one] | 0.15
CC1=C(N2CCC3(CCN(CC(NCC(F)F)c4ccc5c(c4C)COC5=O)CC3)C2=O)COC1=O (stereo not drawn) [Example 55] | 0.25

The remaining molecules from weak to strong by IC50, led by results:

IC50 [µM] | SMILES
0.12 | CC1=C(N2CCC3(CCN(C(C)(C)C(O)c4ccc5c(c4C)COC5=O)CC3)C2=O)COC1=O (single isomer, unassigned) [Example 85A]
0.07 | CC1=C(N2C(=O)C3(CCN(C[C@H](O)c4ccc5c(c4C)COC5=O)CC3)CC2C)COC1=O (single isomer, unassigned) [Example 29]
0.07 | CC1=C(N2CCC3(CCN(C(CO)Cc4ccc5c(c4C)COC5=O)CC3)C2=O)COC1 (single isomer, unassigned) [Example 84B]
0.06 | CC1=C(N2CCC3(CCN(C(CO)Cc4ccc5c(c4C)COC5=O)CC3)C2=O)COC1 (single isomer, unassigned) [Example 84A]
0.05 | CO[C@@H](CN1CCC2(CC1)C[C@H](C)N(C1=CC(=O)OC1)C2=O)c1ccc2c(c1C)COC2=O [Example 2]
0.04 | Cc1c([C@@H](O)CN2CCC3(CC2)CCN(C2=C(C4CC4)C(=O)OC2)C3=O)ccc2c1COC2=O [Example 31]
0.04 | Cc1c([C@@H](O)CN2CCC3(C=CN(C4=CC(=O)OC4)C3=O)CC2)ccc2c1COC2=O [Example 44]
0.04 | CC1=C(N2CCC3(CCN(C[C@H](F)c4ccc5c(c4C)COC5=O)CC3)C2=O)COC1=O [Example 47, 8-[(2R)-2-fluoro-2-(4-methyl-1-oxo-1,3-dihydro-2-benzofuran-5-yl)ethyl]-2-(4-methyl-5-oxo-2,5-dihydrofuran-3-yl)-2,8-diazaspiro[4.5]decan-1-one]
0.04 | CO[C@@H](CN1CCC2(CC1)CCN(C1=C(C)C(=O)OC1)C2=O)c1ccc2c(c1C)COC2=O [Example 49, 8-[(2R)-2-methoxy-2-(4-methyl-1-oxo-1,3-dihydro-2-benzofuran-5-yl)ethyl]-2-(4-methyl-5-oxo-2,5-dihydrofuran-3-yl)-1-oxo-2-aza-8-azoniaspiro[4.5]decane]
0.03 | Cc1c([C@@H](O)CN2CCC3(CC2)CC(C)N(C2=CC(=O)OC2)C3=O)ccc2c1COC2=O (stereo partly drawn) [Example 6, 8-((R)-2-Hydroxy-2-(4-methyl-1-oxo-1,3-dihydroisobenzofuran-5-yl)ethyl)-3-methyl-2-(5-oxo-2,5-dihydrofuran-3-yl)-2,8-diazaspiro[4.5]decan-1-one]
0.03 | CC1=C(N2CCC3(CCN(C[C@@H](O)c4ccc5c(c4C)COC5=O)CC3)C2=O)COC1=O [Example 8, 8-[(2S)-2-hydroxy-2-(4-methyl-1-oxo-1,3-dihydro-2-benzofuran-5-yl)ethyl]-2-(4-methyl-5-oxo-2,5-dihydrofuran-3-yl)-2,8-diazaspiro[4.5]decan-1-one]
0.03 | CC1=C(N2CC(=O)C3(CCN(C[C@H](O)c4ccc5c(c4C)COC5=O)CC3)C2=O)COC1=O [Example 36]
0.03 | CC1=C(N2CCC3(CCN(C[C@@H](O)c4cc5c(cc4C)C(=O)OC5)CC3)C2=O)COC1=O [Example 37]
0.03 | CCO[C@@H](CN1CCC2(CC1)CCN(C1=C(C)C(=O)OC1)C2=O)c1ccc2c(c1C)COC2=O [Example 50, 8-[(2R)-2-ethoxy-2-(4-methyl-1-oxo-1,3-dihydro-2-benzofuran-5-yl)ethyl]-2-(4-methyl-5-oxo-2,5-dihydrofuran-3-yl)-2,8-diazaspiro[4.5]decan-1-one]
0.02 | CCC1CC2(CCN(C[C@H](O)c3ccc4c(c3C)COC4=O)CC2)C(=O)N1C1=CC(=O)OC1 (single isomer, unassigned) [Example 67]
0.02 | CC1=C(N2CCC3(CCN(C[C@H](O)c4cc5c(cc4C)C(=O)OC5)CC3)C2=O)COC1=O [Example 38]
0.02 | CC1=C(N2CCC3(CCN(C[C@@H](F)c4ccc5c(c4C)COC5=O)CC3)C2=O)COC1=O [Example 48, 8-[(2S)-2-fluoro-2-(4-methyl-1-oxo-1,3-dihydro-2-benzofuran-5-yl)ethyl]-2-(4-methyl-5-oxo-2,5-dihydrofuran-3-yl)-2,8-diazaspiro[4.5]decan-1-one]
0.01 | CC1=C(N2CCC3(CCN(C(C)(C)C(O)c4ccc5c(c4C)COC5=O)CC3)C2=O)COC1=O (single isomer, unassigned) [Example 85B]
0.01 | CC1=C(N2CCC3(CCN(CCc4ccc5c(c4C)COC5=O)CC3)C2=O)COC1=O [Example 1, 8-(2-(4-methyl-1-oxo-1,3-dihydroisobenzofuran-5-yl)ethyl)-2-(4-methyl-5-oxo-2,5-dihydrofuran-3-yl)-2,8-diazaspiro[4.5]decan-1-one]
